Values quoted from earlier work in patent US20190209596A1, “METHODS OF TREATING DISEASES” (Boehringer Ingelheim International GmbH, priority 2015, published 2019).

Settings: metformin on its own, in the diabetic

CN(C)C(=N)N=C(N)N [metformin]
average improvement in the HbA1c value: 1.0-1.5%
